Measurements reported in article doi:10.1101/2025.02.15.638425v1, “Synthesis and Biological Evaluation of Nipecotic Acid Derivatives with Terminally Double-Substituted Allenic Spacers as mGAT4 Inhibitors” (biorxiv, 2025).

Key:
mGAT1 [1] = biological target: T1, mGAT1 (Mus musculus, UniProt P31648); experiment: [3H]GABA uptake, intact HEK293 cells; assay type: cell-based
T1 construct: gene Slc6a1; full-length transporter stably expressed in HEK293 cells
Description: [3H]GABA uptake, intact HEK293 cells on mGAT1

mGAT1 [2] = biological target: T1, mGAT1; experiment: competitive MS Binding Assay, NO711 marker, HEK293 membranes
Description: competitive MS Binding Assay, NO711 marker, HEK293 membranes on mGAT1

mGAT2 = biological target: T2, mGAT2 (Mus musculus, UniProt P31651); experiment: [3H]GABA uptake, intact HEK293 cells; assay type: cell-based
T2 construct: gene Slc6a12; full-length transporter stably expressed in HEK293 cells; mouse nomenclature, equivalent of hBGT-1
T2 sequence (P31651 1-614): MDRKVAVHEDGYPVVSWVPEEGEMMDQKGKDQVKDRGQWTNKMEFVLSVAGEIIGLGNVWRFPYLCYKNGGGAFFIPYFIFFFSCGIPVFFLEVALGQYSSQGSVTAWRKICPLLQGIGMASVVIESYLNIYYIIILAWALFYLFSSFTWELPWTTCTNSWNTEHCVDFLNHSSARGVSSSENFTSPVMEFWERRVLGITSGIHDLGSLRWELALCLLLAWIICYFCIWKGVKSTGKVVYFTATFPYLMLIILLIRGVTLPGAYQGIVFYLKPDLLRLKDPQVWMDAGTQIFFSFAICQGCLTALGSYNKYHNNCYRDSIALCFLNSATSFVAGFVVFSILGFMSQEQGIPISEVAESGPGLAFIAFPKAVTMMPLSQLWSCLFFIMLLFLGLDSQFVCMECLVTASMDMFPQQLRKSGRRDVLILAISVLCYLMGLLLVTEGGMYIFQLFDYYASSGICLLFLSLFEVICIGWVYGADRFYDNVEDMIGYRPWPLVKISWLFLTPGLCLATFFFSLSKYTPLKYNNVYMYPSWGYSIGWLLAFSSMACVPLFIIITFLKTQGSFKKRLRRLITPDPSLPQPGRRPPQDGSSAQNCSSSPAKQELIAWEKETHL
Description: [3H]GABA uptake, intact HEK293 cells on mGAT2

mGAT3 = biological target: T3, mGAT3 (Mus musculus, UniProt P31649); experiment: [3H]GABA uptake, intact HEK293 cells; assay type: cell-based
T3 construct: gene Slc6a13; full-length transporter stably expressed in HEK293 cells; mouse nomenclature, equivalent of hGAT-2
T3 sequence (P31649 1-602): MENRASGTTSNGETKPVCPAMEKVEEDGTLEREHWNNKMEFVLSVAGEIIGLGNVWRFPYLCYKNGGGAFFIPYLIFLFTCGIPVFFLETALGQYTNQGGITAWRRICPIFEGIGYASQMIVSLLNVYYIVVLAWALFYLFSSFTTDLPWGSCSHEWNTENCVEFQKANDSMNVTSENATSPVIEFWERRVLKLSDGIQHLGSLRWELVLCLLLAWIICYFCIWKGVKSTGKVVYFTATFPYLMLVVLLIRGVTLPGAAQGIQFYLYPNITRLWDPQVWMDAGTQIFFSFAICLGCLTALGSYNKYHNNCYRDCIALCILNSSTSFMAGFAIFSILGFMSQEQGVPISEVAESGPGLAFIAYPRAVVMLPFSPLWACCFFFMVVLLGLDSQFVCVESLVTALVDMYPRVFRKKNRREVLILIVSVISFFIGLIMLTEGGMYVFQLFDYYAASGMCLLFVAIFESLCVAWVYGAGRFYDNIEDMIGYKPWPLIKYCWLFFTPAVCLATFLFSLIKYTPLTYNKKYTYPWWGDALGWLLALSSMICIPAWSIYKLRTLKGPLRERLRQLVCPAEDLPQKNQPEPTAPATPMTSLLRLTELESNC
Description: [3H]GABA uptake, intact HEK293 cells on mGAT3

mGAT4 [3] = biological target: T4, mGAT4 (Mus musculus, UniProt P31650); experiment: [3H]GABA uptake, intact HEK293 cells; assay type: cell-based
T4 construct: gene Slc6a11; full-length transporter stably expressed in HEK293 cells
T4 sequence (P31650 1-627): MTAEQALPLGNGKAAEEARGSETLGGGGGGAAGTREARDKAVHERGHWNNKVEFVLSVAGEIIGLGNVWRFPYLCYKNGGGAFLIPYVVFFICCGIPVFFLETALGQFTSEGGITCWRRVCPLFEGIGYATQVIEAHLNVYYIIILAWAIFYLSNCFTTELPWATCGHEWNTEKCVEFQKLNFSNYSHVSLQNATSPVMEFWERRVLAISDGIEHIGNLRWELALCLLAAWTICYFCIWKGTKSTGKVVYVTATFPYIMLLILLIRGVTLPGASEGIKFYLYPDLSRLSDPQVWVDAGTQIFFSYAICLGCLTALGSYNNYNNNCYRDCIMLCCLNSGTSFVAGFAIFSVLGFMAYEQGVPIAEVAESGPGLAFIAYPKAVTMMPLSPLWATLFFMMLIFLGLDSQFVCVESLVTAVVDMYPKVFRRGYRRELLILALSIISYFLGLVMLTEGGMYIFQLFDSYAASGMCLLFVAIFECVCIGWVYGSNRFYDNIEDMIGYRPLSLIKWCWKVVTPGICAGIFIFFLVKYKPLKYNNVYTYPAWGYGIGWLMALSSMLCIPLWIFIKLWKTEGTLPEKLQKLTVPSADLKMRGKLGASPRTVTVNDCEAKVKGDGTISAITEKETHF

hGAT-3 = biological target: T5, hGAT-3 (Homo sapiens, UniProt P48066); experiment: MS Transport Assay (GABA transport), COS-7 cells; assay type: cell-based
T5 construct: gene SLC6A11; full-length transporter stably expressed in COS-7 cells
T5 sequence (P48066 1-632): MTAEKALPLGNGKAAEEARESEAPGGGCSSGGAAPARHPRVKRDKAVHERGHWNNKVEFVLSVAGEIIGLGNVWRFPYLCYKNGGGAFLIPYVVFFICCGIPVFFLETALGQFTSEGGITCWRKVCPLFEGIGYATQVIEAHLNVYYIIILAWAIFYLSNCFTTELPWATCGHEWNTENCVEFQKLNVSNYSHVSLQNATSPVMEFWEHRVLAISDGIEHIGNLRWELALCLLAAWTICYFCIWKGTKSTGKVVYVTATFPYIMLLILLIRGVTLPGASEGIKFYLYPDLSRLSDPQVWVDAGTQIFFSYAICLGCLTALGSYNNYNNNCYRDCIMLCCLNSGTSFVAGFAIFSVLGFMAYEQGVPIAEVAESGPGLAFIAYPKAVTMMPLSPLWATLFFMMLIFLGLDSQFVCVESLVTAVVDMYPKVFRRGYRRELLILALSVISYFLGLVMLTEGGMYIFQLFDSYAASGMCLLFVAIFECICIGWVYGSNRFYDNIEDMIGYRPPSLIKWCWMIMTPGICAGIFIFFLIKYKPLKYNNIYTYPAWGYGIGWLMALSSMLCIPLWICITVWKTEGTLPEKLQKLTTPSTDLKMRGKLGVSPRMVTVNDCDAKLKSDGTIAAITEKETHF
Description: MS Transport Assay (GABA transport), COS-7 cells on hGAT-3

mGAT4 [4] = biological target: T4, mGAT4; experiment: [3H]GABA uptake, intact HEK293 cells; assay type: cell-based; remark: listed apart in the source
Description: [3H]GABA uptake, intact HEK293 cells on mGAT4

| SMILES | IC50 (mGAT1 [1]) | Ki (mGAT1 [2]) | IC50 (mGAT2) | IC50 (mGAT3) | IC50 (mGAT4 [3]) | IC50 (hGAT-3) | remaining activity at 100 µM (mGAT4 [4]) | remaining activity at 100 µM (mGAT3) |
| --- | --- | --- | --- | --- | --- | --- | --- | --- |
| O=C(O)C1CCCN(CC=C=C(c2ccccc2)c2ccc(-c3ccccc3)cc2)C1 (racemic) [8f, rac-{(Ra)-1-[4-(1,1’-biphenyl-4-yl)-4-phenylbuta-2,3-dien-1-yl]-(3R)-piperidine-3-carboxylic acid} [rac-(3R,Ra)-8f] and rac-{(Sa)-1-[4-(1,1’-biphenyl-4-yl)-4-phenylbuta-2,3-dien-1-yl]-(3R)-piperidine-3-carboxylic acid}] | 5.01 µM | 1.23 µM | 6.46 µM | 8.32 µM | 4.47 µM | 1.66 µM | – | – |
| COc1ccc2c(c1)CCCC2=C=CCN1CCCC(C(=O)O)C1 (racemic) [8g, rac-[(Ra)-1-{3-[6-methoxy-3,4-dihydronaphthalen-1(2H)-ylidene]allyl}-(3R)-piperidine-3-carboxylic acid] [rac-(3R,Ra)-8g] and rac-[(Sa)-1-{3-[6-methoxy-3,4-dihydronaphthalen-1(2H)-ylidene]allyl}-(3R)-piperidine-3-carboxylic acid]] | 13.5 µM | 58.9 µM | – | – | – | – | 70% | – |
| O=C(O)C1CCCN(CCC=C=C(c2ccccc2)c2ccc(-c3ccccc3)cc2)C1 (racemic) [11f, rac-{(Ra)-1-[5-(1,1’-biphenyl-4-yl)-5-phenylpenta-3,4-dien-1-yl]-(3R)-piperidine-3-carboxylic acid} [rac-(3R,Ra)-11f] and rac-{(Sa)-1-[5-(1,1’-biphenyl-4-yl)-5-phenylpenta-3,4-dien-1-yl]-(3R)-piperidine-3-carboxylic acid}] | 4.68 µM | 0.891 µM | 12.3 µM | 10.2 µM | 12.6 µM | 6.17 µM | – | – |
| O=C(O)C1CCCN(CC=C=C(c2ccccc2)c2ccccc2)C1 (racemic) [rac-8a, rac-[1-(4,4-Diphenylbuta-2,3-dien-1-yl)piperidine-3-carboxylic acid]] | 7.41 µM | 1.17 µM | – | – | – | – | 82% | – |
| Cc1ccc(C(=C=CCN2CCCC(C(=O)O)C2)c2ccc(C)cc2)cc1 (racemic) [rac-8b, rac-[1-(4,4-Di-p-tolylbuta-2,3-dien-1-yl)piperidine-3-carboxylic acid]] | 6.46 µM | 1.38 µM | 27.5 µM | 10.5 µM | 11.5 µM | – | – | – |
| O=C(O)C1CCCN(CC=C=C(c2ccc(F)cc2)c2ccc(F)cc2)C1 (racemic) [rac-8c, rac-{1-[4,4-Bis(4-fluorophenyl)buta-2,3-dien-1-yl]piperidine-3-carboxylic acid}] | 1.07 µM | 0.562 µM | 79.4 µM | 69.2 µM | 30.2 µM | – | – | – |
| O=C(O)C1CCCN(CC=C=C(c2ccc(Cl)cc2)c2ccc(Cl)cc2)C1 (racemic) [rac-8d] | 0.372 µM | 0.155 µM | 7.59 µM | 2.95 µM | 0.832 µM | 0.447 µM | – | – |
| O=C(O)C1CCCN(CCC=C=C(c2ccccc2)c2ccccc2)C1 (racemic) [rac-11a, rac-[1-(5,5-Diphenylpenta-3,4-dien-1-yl)piperidine-3-carboxylic acid]] | 24.5 µM | 5.5 µM | 178 µM | 129 µM | – | – | 64% | – |
| Cc1ccc(C(=C=CCCN2CCCC(C(=O)O)C2)c2ccc(C)cc2)cc1 (racemic) [rac-11b, rac-[1-(5,5-Di-p-tolylpenta-3,4-dien-1-yl)piperidine-3-carboxylic acid]] | 14.1 µM | 1.58 µM | 81.3 µM | 58.9 µM | 83.2 µM | – | – | – |
| O=C(O)C1CCCN(CCC=C=C(c2ccc(F)cc2)c2ccc(F)cc2)C1 (racemic) [rac-11c, rac-{1-[5,5-Bis(4-fluorophenyl)penta-3,4-dien-1-yl]piperidine-3-carboxylic acid}] | 12.9 µM | 3.24 µM | – | – | – | – | 63% | 50% |
| O=C(O)C1CCCN(CCC=C=C(c2ccc(Cl)cc2)c2ccc(Cl)cc2)C1 (racemic) [rac-11d, rac-{1-[5,5-Bis(4-chlorophenyl)penta-3,4-dien-1-yl]piperidine-3-carboxylic acid}] | 1.91 µM | 0.631 µM | 12 µM | 28.2 µM | 17 µM | – | – | – |
| O=C(O)[C@@H]1CCCN(CC=C=C(c2ccc(Cl)cc2)c2ccc(Cl)cc2)C1 [(R)-8d] | 0.155 µM | 0.102 µM | 15.8 µM | 4.17 µM | 2 µM | 2.4 µM | – | – |
| O=C(O)[C@H]1CCCN(CC=C=C(c2ccc(Cl)cc2)c2ccc(Cl)cc2)C1 [(S)-8d, (S)-1-[4,4-bis(4-chlorophenyl)buta-2,3-dien-1-yl]piperidine-3-carboxylic acid] | 1.35 µM | 2.51 µM | 4.07 µM | 1.1 µM | 0.257 µM | 0.324 µM | – | – |
